± gives the standard deviation of the averaged measurements.
Experiments:
Assay in all cases: level (log10 ratio to DMSO vehicle control); higher = higher biomarker level / cell amount than vehicle control
[1] = compound: C=C(C)C(=O)OCCC(F)(F)C(F)(F)C(F)(F)C(F)(F)C(F)(C(F)(F)F)C(F)(F)F [(Perfluoro-5-methylhexyl)ethyl 2-methylprop-2-enoate]; details: in DMSO
Experimental: (§1)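 BioMAP Diversity Plus panel of 12 human primary cell co-culture systems (3C, 4H, LPS, SAg, BT, BF4T, BE3C, CASM3C, HDF3CGF, KF3CT, MyoF, Mphg). Compounds were added 1 h before stimulation and left for 24 h (MyoF 48 h; BT 72 h for soluble read-outs or 6 d for IgG). Biomarkers were read by ELISA, cytotoxicity by SRB, PBMC viability and proliferation by Alamar Blue. Each well value was divided by the mean of 8 DMSO control wells on the same plate and log10 transformed; duplicate blinded samples were tested at 4 concentrations.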

[2] = compound: FC(F)(F)C(F)(C(F)(F)F)C(F)(F)C(F)(F)CC1CO1 [3-(Perfluoro-3-methylbutyl)-1,2-propenoxide]; details: in DMSO
Experimental: as §1

[3] = compound: FC(F)(F)C(F)(F)C(F)(F)C(F)(F)C(F)(F)CCI [1-Iodo-1H,1H,2H,2H-perfluoroheptane]; details: in DMSO
Experimental: as §1

Heptafluorobutyramide = compound: NC(=O)C(F)(F)C(F)(F)C(F)(F)F [Heptafluorobutyramide]; details: in DMSO
Experimental: as §1

Perfluoropentanoic acid = compound: O=C(O)C(F)(F)C(F)(F)C(F)(F)C(F)(F)F [Perfluoropentanoic acid]; details: in DMSO
Experimental: as §1

Perfluorobutanoic acid = compound: O=C(O)C(F)(F)C(F)(F)C(F)(F)F [Perfluorobutanoic acid]; details: in DMSO
Experimental: as §1

[4] = compound: O=C(O)C(F)(F)C(F)(F)OC(F)(F)F [Perfluoro-3-methoxypropanoic acid]; details: in DMSO
Experimental: as §1

[5] = compound: OCCCC(F)(F)C(F)(F)C(F)(F)C(F)(F)C(F)(F)C(F)(F)C(F)(F)F [7:3 Fluorotelomer alcohol]; details: 6700 nM; in DMSO
Experimental: as §1

| Test System | level (log10) ([1]; 6700 nM) | level (log10) ([1]; 20000 nM) | level (log10) ([2]; 6700 nM) | level (log10) ([2]; 20000 nM) | level (log10) ([3]; 6700 nM) | level (log10) ([3]; 20000 nM) | level (log10) ([3]; 60000 nM) | level (log10) (Heptafluorobutyramide; 6700 nM) | level (log10) (Heptafluorobutyramide; 20000 nM) | level (log10) (Heptafluorobutyramide; 60000 nM) | level (log10) (Perfluoropentanoic acid; 6700 nM) | level (log10) (Perfluoropentanoic acid; 20000 nM) | level (log10) (Perfluoropentanoic acid; 60000 nM) | level (log10) (Perfluorobutanoic acid; 6700 nM) | level (log10) (Perfluorobutanoic acid; 20000 nM) | level (log10) (Perfluorobutanoic acid; 60000 nM) | level (log10) ([4]; 6700 nM) | level (log10) ([4]; 20000 nM) | level (log10) ([4]; 60000 nM) | level (log10) [5] |
| --- | --- | --- | --- | --- | --- | --- | --- | --- | --- | --- | --- | --- | --- | --- | --- | --- | --- | --- | --- | --- |
| SAg:CXCL9/MIG | 0.002 ± 0.0085 | 0.015 ± 0.0042 | -0.0255 ± 0.005 | -0.002 ± 0.018 | -0.005 ± 0.013 | -0.0145 ± 0.0092 | 0.0005 ± 0.012 | 0.0075 ± 0.0021 | -0.0025 ± 0.012 | 0.0005 ± 0.013 | -0.0115 ± 0.0078 | -0.014 ± 0.0099 | 0.004 ± 0.021 | -0.0045 ± 0.005 | -0.003 ± 0.016 | -0.0065 ± 0.005 | 0.001 ± 0.0057 | 0.006 ± 0.0042 | -0.002 ± 0.0099 | -0.0145 ± 0.005 |
| BT:sIL-17F | 0.004 ± 0.15 | -0.0015 ± 0.0092 | 0.0485 ± 0.028 | -0.0345 ± 0.093 | -0.0855 ± 0.011 | 0.0525 ± 0.033 | -0.0455 ± 0.16 | -0.001 ± 0.035 | -0.0165 ± 0.018 | -0.006 ± 0.03 | -0.06 ± 0.027 | -0.0325 ± 0.044 | 0.0375 ± 0.19 | 0.081 ± 0.035 | 0.065 ± 0.0014 | -0.035 ± 0.024 | -0.161 ± 0.067 | -0.033 ± 0.052 | -0.0115 ± 0.011 | 0.0115 ± 0.056 |
| BE3C:HLA-DR | -0.0115 ± 0.0078 | -0.0045 ± 0.0078 | -0.0075 ± 0.005 | -0.003 ± 0.0085 | -0.0055 ± 0.0035 | -0.0105 ± 0.0035 | -0.0215 ± 0.0078 | -0.0065 ± 0.005 | 0.0245 ± 0.012 | -0.009 ± 0.0099 | -0.0095 ± 0.018 | 0 ± 0.011 | 0.016 ± 0.033 | -0.0085 ± 0.018 | 0.007 ± 0.0014 | -0.027 ± 0.013 | -0.014 ± 0.0014 | 0.003 ± 0.023 | -0.0035 ± 0.033 | 0.0045 ± 0.029 |
| BE3C:IL-1alpha | -0.017 ± 0.0057 | -0.009 ± 0.0014 | 0.002 ± 0.025 | 0.023 ± 0.057 | -0.0085 ± 0.016 | -0.005 ± 0.013 | -0.012 ± 0.0085 | -0.0085 ± 0.052 | 0.027 ± 0.037 | -0.004 ± 0.076 | 0.005 ± 0.02 | 0 ± 0.0028 | 0.0155 ± 0.029 | 0.007 ± 0.018 | 0.0155 ± 0.021 | 0.0225 ± 0.049 | 0.0105 ± 0.015 | 0.0235 ± 0.005 | 0.0355 ± 0.026 | -0.002 ± 0.014 |
| LPS:M-CSF | 0.022 ± 0.02 | 0.006 ± 0.0042 | -0.0005 ± 0.019 | 0.021 ± 0.038 | -0.0145 ± 0.0092 | -0.0185 ± 0.0035 | -0.031 ± 0.017 | -0.003 ± 0.016 | -0.006 ± 0.0014 | -0.006 ± 0.0057 | -0.031 ± 0.024 | -0.061 ± 0.11 | -0.0385 ± 0.11 | 0.004 ± 0.014 | -0.005 ± 0.016 | 0.003 ± 0.03 | 0.001 ± 0.0085 | -0.0165 ± 0.00071 | 0.0235 ± 0.015 | -0.006 ± 0.025 |
| LPS:CD141/Thrombomodulin | 0.0055 ± 0.0092 | -0.0345 ± 0.021 | 0.0355 ± 0.0035 | 0.019 ± 0.034 | -0.016 ± 0.0085 | -0.014 ± 0.0099 | -0.032 ± 0.0014 | -0.018 ± 0.05 | -0.0175 ± 0.064 | -0.0175 ± 0.035 | -0.0115 ± 0.047 | -0.045 ± 0.073 | -0.0085 ± 0.11 | -0.0035 ± 0.046 | -0.0295 ± 0.05 | 0.008 ± 0.054 | 0.0175 ± 0.036 | 0.0075 ± 0.022 | 0.0255 ± 0.028 | -0.0025 ± 0.013 |
| BT:sIL-6 | -0.0095 ± 0.025 | 0.0305 ± 0.073 | 0.0275 ± 0.043 | -0.0215 ± 0.005 | -0.0395 ± 0.043 | 0.0425 ± 0.033 | -0.077 ± 0.0099 | 0.0565 ± 0.0078 | -0.013 ± 0.0071 | -0.0215 ± 0.046 | -0.0355 ± 0.1 | 0.01 ± 0.051 | 0.022 ± 0.04 | 0.019 ± 0.064 | 0.055 ± 0.033 | -0.0415 ± 0.088 | 0.004 ± 0.11 | 0.0285 ± 0.036 | -0.0045 ± 0.05 | -0.0125 ± 0.073 |

Source: the supplement of paper PMC10331698
